Experimental data as given in patent US6720346B2, “Thiazole benzamide derivatives and pharmaceutical compositions for inhibiting cell proliferation” (Agouron Pharmaceuticals, Inc., priority 2001, dated 2004).
Structures can show the parent of a compound that is named as a salt.

Tests used:
human CDK4/cyclin D3 = target: T1, human CDK4/cyclin D3 (Homo sapiens, UniProt P11802); test: Inhibition of CDK4/cyclin D retinoblastoma kinase activity (Ki; % inhibition); format: biochemical; settings: for Ki: apparent Ki, CDK4/cyclin D3, Rb substrate
T1 construct: made in house; host or cells: insect cells co-infected with baculovirus vectors
T1 sequence (P11802 whole entry): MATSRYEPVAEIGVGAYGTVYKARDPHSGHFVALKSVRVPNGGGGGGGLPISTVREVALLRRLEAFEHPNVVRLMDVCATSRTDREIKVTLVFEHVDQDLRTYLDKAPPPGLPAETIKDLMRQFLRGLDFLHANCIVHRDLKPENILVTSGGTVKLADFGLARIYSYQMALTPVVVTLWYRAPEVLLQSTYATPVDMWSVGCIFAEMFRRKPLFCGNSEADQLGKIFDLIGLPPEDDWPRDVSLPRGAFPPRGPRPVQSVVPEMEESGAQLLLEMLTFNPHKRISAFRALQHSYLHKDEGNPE
T1 sequence (P30281 1-264 partner limits assumed): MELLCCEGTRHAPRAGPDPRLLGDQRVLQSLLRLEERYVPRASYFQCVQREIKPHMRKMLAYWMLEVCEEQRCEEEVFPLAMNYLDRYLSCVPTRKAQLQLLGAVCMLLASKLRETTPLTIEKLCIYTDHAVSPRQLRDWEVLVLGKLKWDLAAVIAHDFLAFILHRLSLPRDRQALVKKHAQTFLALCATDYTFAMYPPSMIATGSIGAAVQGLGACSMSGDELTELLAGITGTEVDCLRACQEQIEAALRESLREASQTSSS
Method in brief: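 Radiometric filter-binding read-out: Rb residues 386-928 phosphorylated by 5 nM CDK4/cyclin D3(1-264) from baculovirus-infected insect cells, 25 μM ATP, HEPES pH 7.4, 30 °C. Run 20 min, or 60 min for tight-binding inhibitors. Screening at 30 nM theoretical compound; apparent Ki by competitive-inhibition fitting.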

HCT-116 cell line = test: Inhibition of cell growth, MTT tetrazolium salt assay; format: cell-based; settings: for IC50: Homo sapiens, HCT-116, 120 h, MTT, three to five days
Method in brief: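 Cells in McCoy's 5A medium were given 4 h before compound addition in 0.5% (v/v) DMSO, then incubated 3–5 days at 37 °C, 5% CO2. After 4 h with 0.2 mg/mL MTT, DMSO-solubilized formazan was read at 540 nm; 50% and 90% growth-inhibitory concentrations came from semi-log plots against vehicle controls.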

CDK2/cyclin A = target: T2, CDK2/cyclin A (Homo sapiens, UniProt P24941); test: Inhibition of CDK2/cyclin A retinoblastoma kinase activity (Ki; % inhibition); format: biochemical; settings: for Ki: apparent Ki, CDK2/cyclin A, Rb substrate
T2 construct: made in house; host or cells: CDK2: insect cells (baculovirus); cyclin A: E. coli
Method in brief: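 Apparent Ki values came from fitting concentration-dependent activity data to competitive (or competitive tight-binding) models, and % inhibition from single 30 nM screens of library compounds. Activity was measured as ³²P/³³P incorporation from 25 μM ATP into an Rb substrate by 10 or 19 nM CDK2/delta cyclin A at 30 °C over 60–75 min, pH 7.4.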

[1] = HCT-116 cells, 0.25 μM compound

SMILES | CDK4 % Inhibition at 0.03 μM (human CDK4/cyclin D3; 0.03 μM compound) | CDK2 % Inhibition at 0.03 μM (CDK2/cyclin A; 0.03 μM compound) | CDK4 % Inhibition at 0.03 μM (human CDK4/cyclin D3; at 0.03 μM) | CDK2 % Inhibition at 0.03 μM (CDK2/cyclin A; at 0.03 μM) | HCT-116 % Inhibition at 0.1 μM (HCT-116 cell line; HCT-116 cells, 0.1 μM compound) | HCT-116 % Inhibition at 0.25 μM (HCT-116 cell line; [1]) | HCT-116 % Inhibition at 0.25 μM (HCT-116 cell line; HCT-116, at 0.25 μM) | other results
CCOC(=O)Cc1ccc(NC(=O)c2ccc(Nc3nc(N)c(C(=O)c4c(F)cccc4F)s3)cc2)cc1 [Example G130] | – | – | 11% | 1% | – | – | 77% | HCT-116 % Inhibition at 0.1 μM (HCT-116 cell line; HCT-116, at 0.1 μM): 0%
CN1[C@@H]2CC[C@@H](C2)[C@@H]1CNC(=O)c1ccc(Nc2nc(N)c(C(=O)c3c(F)cccc3F)s2)cc1 (relative stereo) [Example A76, 4-[4-Amino-5-(2,6-difluoro-benzoyl)-thiazol-2-ylamino]-N-(2-methyl-2-aza-bicyclo[2.2.1]hept-3-endo-ylmethyl)-benzamide] | – | – | – | – | – | – | – | Ki (human CDK4/cyclin D3): 120 nM; IC50 (HCT-116 cell line): 1100 nM; Ki (CDK2/cyclin A): 15 nM
CC(C)CCCC(C)NC(=O)c1ccc(Nc2nc(N)c(C(=O)c3c(F)cccc3F)s2)cc1 (centres unmarked) [Example G141] | – | – | 11% | 0% | – | – | 50% | HCT-116 % Inhibition at 0.1 μM (HCT-116 cell line; HCT-116, at 0.1 μM): 0%
Cn1ccnc1CNC(=O)c1ccc(Nc2nc(N)c(C(=O)c3c(F)cccc3F)s2)cc1 [Example A50, 4-[4-Amino-5-(2,6-difluoro-benzoyl)-thiazol-2-ylamino]-N-(1-methyl-1H-imidazol-2-ylmethyl)-benzamide Hydrochloride Salt] | – | – | – | – | – | – | – | Ki (human CDK4/cyclin D3): 15 nM; IC50 (HCT-116 cell line): 170 nM; Ki (CDK2/cyclin A): 20 nM
CN(CC1CC1)C(C)(C)CNC(=O)c1ccc(Nc2nc(N)c(C(=O)c3c(F)cccc3F)s2)cc1 [Example A39] | – | – | – | – | – | – | – | Ki (human CDK4/cyclin D3): 11 nM; IC50 (HCT-116 cell line): 170 nM; Ki (CDK2/cyclin A): 160 nM
Nc1nc(Nc2ccc(C(=O)NCCN3CCOCC3)cc2)sc1C(=O)c1c(F)cccc1F [Example G124] | – | – | 17% | 10% | – | – | 64% | HCT-116 % Inhibition at 0.1 μM (HCT-116 cell line; HCT-116, at 0.1 μM): 0%
Nc1nc(Nc2ccc(C(=O)N3CCCC3)cc2)sc1C(=O)c1c(F)cccc1F [Example G47] | – | – | 6% | −15% | – | – | 53% | –
COc1cc(NC(=O)c2ccc(Nc3nc(N)c(C(=O)c4c(F)cccc4F)s3)cc2)ccc1C [Example G138] | – | – | 17% | 7% | – | – | 65% | HCT-116 % Inhibition at 0.1 μM (HCT-116 cell line; HCT-116, at 0.1 μM): 0%
Cc1ccc(NC(=O)c2ccc(Nc3nc(N)c(C(=O)c4c(F)cccc4F)s3)cc2)c(Cl)c1 [Example G44] | – | – | 14% | 8% | – | – | 72% | –
Nc1nc(Nc2ccc(C(=O)NC3CCN(Cc4ccccc4)C3)cc2)sc1C(=O)c1c(F)cccc1F (centres unmarked) [Example G353] | – | – | – | – | – | – | – | CDK4 % Inhibition at 0.03 μM (human CDK4/cyclin D3; 0.03 μM compound, 0.03 µM): 46%; HCT-116 % Inhibition at 0.1 μM (HCT-116 cell line; HCT-116 cells, 0.1 μM compound, 0.1 µM): 0%; HCT-116 % Inhibition at 0.25 μM (HCT-116 cell line; HCT-116 cells, 0.25 μM compound, 0.25 µM): 55%; CDK2 % Inhibition at 0.03 μM (CDK2/cyclin A; 0.03 μM compound, 0.03 µM): 35%
Nc1nc(Nc2ccc(C(=O)Nc3ccc4c(c3)OCO4)cc2)sc1C(=O)c1c(F)cccc1F [Example G52] | – | – | 5% | 10% | – | – | 65% | –
Cn1cnc(CNC(=O)c2ccc(Nc3nc(N)c(C(=O)c4c(F)cccc4F)s3)cc2)c1 [Example A63, 4-[4-Amino-5-(2,6-difluoro-benzoyl)-thiazol-2-ylamino]-N-(1-methyl-imidazol-4-yl-methyl)-benzamide Trifluoroacetic Acid Salt] | – | – | – | – | – | – | – | Ki (human CDK4/cyclin D3): 18 nM; IC50 (HCT-116 cell line): 1600 nM; Ki (CDK2/cyclin A): 15.3 nM
CN1CC(CNC(=O)c2ccc(Nc3nc(N)c(C(=O)c4c(F)cccc4F)s3)cc2)C1 [Example A75, 4-[4-Amino-5-(2,6-difluoro-benzoyl)-thiazol-2-ylamino]-N-(1-methyl-azetidin-3-ylmethyl)-benzamide] | – | – | – | – | – | – | – | Ki (human CDK4/cyclin D3): 51 nM; IC50 (HCT-116 cell line): 1900 nM; Ki (CDK2/cyclin A): 7.3 nM
CCOC(=O)c1cccc(NC(=O)c2ccc(Nc3nc(N)c(C(=O)c4c(F)cccc4F)s3)cc2)c1 [Example G24] | – | – | 11% | 7% | – | – | 58% | –
Nc1nc(Nc2ccc(C(=O)N3CCOCC3)cc2)sc1C(=O)c1c(F)cccc1F [Example G10] | – | – | −2% | −4% | – | – | 51% | –

Continued, in another order:

CDK4 % Inhibition at 0.03 μM (human CDK4/cyclin D3; 0.03 μM compound) | CDK2 % Inhibition at 0.03 μM (CDK2/cyclin A; 0.03 μM compound) | CDK4 % Inhibition at 0.03 μM (human CDK4/cyclin D3; at 0.03 μM) | CDK2 % Inhibition at 0.03 μM (CDK2/cyclin A; at 0.03 μM) | SMILES | HCT-116 % Inhibition at 0.1 μM (HCT-116 cell line; HCT-116 cells, 0.1 μM compound) | HCT-116 % Inhibition at 0.25 μM (HCT-116 cell line; [1]) | HCT-116 % Inhibition at 0.25 μM (HCT-116 cell line; HCT-116, at 0.25 μM) | other results
27% | 30% | – | – | Nc1nc(Nc2ccc(C(=O)NCc3ccc(C(F)(F)F)cc3)cc2)sc1C(=O)c1c(F)cccc1F [Example G261] | 26% | 69% | – | –
17% | −14% | – | – | CN(C)CCCN1CCN(C(=O)c2ccc(Nc3nc(N)c(C(=O)c4c(F)cccc4F)s3)cc2)CC1 [Example G357] | 17% | 88% | – | –
26% | 16% | – | – | Cc1ccc(CNC(=O)c2ccc(Nc3nc(N)c(C(=O)c4c(F)cccc4F)s3)cc2)cc1 [Example G253] | 19% | 62% | – | –
10% | 6% | – | – | CCCc1ccc(NC(=O)c2ccc(Nc3nc(N)c(C(=O)c4c(F)cccc4F)s3)cc2)cc1 [Example G204] | 19% | 49% | – | –
20% | 25% | – | – | Nc1nc(Nc2ccc(C(=O)NCc3ccc(Cl)cc3)cc2)sc1C(=O)c1c(F)cccc1F [Example G258] | 41% | 84% | – | –
30% | 15% | – | – | CCOC(=O)N1CCC(NC(=O)c2ccc(Nc3nc(N)c(C(=O)c4c(F)cccc4F)s3)cc2)CC1 [Example G231] | 6% | 55% | – | –
– | – | 18% | 19% | COC(=O)[C@H](C)NC(=O)c1ccc(Nc2nc(N)c(C(=O)c3c(F)cccc3F)s2)cc1 [Example G145] | – | – | 68% | HCT-116 % Inhibition at 0.1 μM (HCT-116 cell line; HCT-116, at 0.1 μM): 0%
11% | −12% | – | – | Nc1nc(Nc2ccc(C(=O)NCCCCO)cc2)sc1C(=O)c1c(F)cccc1F [Example G256] | 19% | 49% | – | –
11% | 10% | – | – | CN(CCC1OCCO1)C(=O)c1ccc(Nc2nc(N)c(C(=O)c3c(F)cccc3F)s2)cc1 [Example G387] | 32% | 52% | – | –
– | – | 16% | 4% | C#CCCN(CCCC)C(=O)c1ccc(Nc2nc(N)c(C(=O)c3c(F)cccc3F)s2)cc1 [Example G171] | – | – | 47% | HCT-116 % Inhibition at 0.1 μM (HCT-116 cell line; HCT-116, at 0.1 μM): 30%
– | – | 7% | 13% | CNC(=O)c1ccccc1NC(=O)c1ccc(Nc2nc(N)c(C(=O)c3c(F)cccc3F)s2)cc1 [Example G161] | – | – | 57% | HCT-116 % Inhibition at 0.1 μM (HCT-116 cell line; HCT-116, at 0.1 μM): 0%
9% | 12% | – | – | Nc1nc(Nc2ccc(C(=O)NCCN3CCNC3=O)cc2)sc1C(=O)c1c(F)cccc1F [Example G229] | 8% | 44% | – | –
14% | 14% | – | – | Nc1nc(Nc2ccc(C(=O)Nc3ccccc3F)cc2)sc1C(=O)c1c(F)cccc1F [Example G235] | 10% | 51% | – | –
12% | −1% | – | – | Cc1cc(NC(=O)c2ccc(Nc3nc(N)c(C(=O)c4c(F)cccc4F)s3)cc2)ccc1F [Example G330] | 2% | 55% | – | –
– | – | 15% | 18% | Nc1nc(Nc2ccc(C(=O)Nc3cccc(-c4cnco4)c3)cc2)sc1C(=O)c1c(F)cccc1F [Example G153] | – | – | 66% | HCT-116 % Inhibition at 0.1 μM (HCT-116 cell line; HCT-116, at 0.1 μM): 0%
2% | −43% | – | – | Nc1nc(Nc2ccc(C(=O)N3CCN(CCO)CC3)cc2)sc1C(=O)c1c(F)cccc1F [Example G257] | 33% | 51% | – | –
11% | −6% | – | – | Nc1nc(Nc2ccc(C(=O)Nc3ccc(Nc4ccccc4)cc3)cc2)sc1C(=O)c1c(F)cccc1F [Example G305] | 29% | 81% | – | –
– | – | 7% | 6% | Nc1nc(Nc2ccc(C(=O)Nc3ccccc3N3CCOCC3)cc2)sc1C(=O)c1c(F)cccc1F [Example G146] | – | – | 52% | HCT-116 % Inhibition at 0.1 μM (HCT-116 cell line; HCT-116, at 0.1 μM): 1%
